From article PMC9252919, “Controlled masking and targeted release of redox-cycling ortho-quinones via a C–C bond-cleaving 1,6-elimination” (Nature Chemistry, 2022)

Key:
[1] = test system: HL-60 cells; assay: Lysosomal deacidification and inhibition assay; format: cell-based, human; conditions: HL-60, NH4Cl 30 mM
Protocol: Assays to assess the effect of lysosomal activity on prodrugs were performed as follows: HL-60 cells were plated into 96-well plates at a concentration of 2.5 × 10^5 cells ml^−1 in 180 µl media. Cells were treated with 10 µl of a stock of NH4Cl in PBS (to obtain an in-plate concentration of 3 or 30 mM), 10 µl of a dilution of a DMSO stock of E64d in PBS (to obtain an in-plate concentration of 30 μM), PBS only or a dilution of DMSO in PBS. Cells were incubated for 30 min. Following this, 10 µl of a stock of test compound made by dilution of a DMSO stock into media was added. DMSO was present in-plate at a maximum of 0.2%. Cells were incubated overnight for 16 h. Following incubation, media was replaced with media containing CellTiter-Blue (Promega) in 1:4 dilution and the plates were incubated for 6 h. The fluorescence of the plates was recorded (excitation, 555 nm; emission, 585 nm; MiniMax i3x Reader, Molecular Devices). Cell viability was calculated by division of the fluorescence intensity of treated wells by that of the average fluorescence intensity of the relevant negative control wells.

[2] = Quantitative LC-MS/MS of β-lapachone in xenograft mouse tumour; format: in vivo, NOD-SCID mice; conditions: fixed tumour homogenate of mice treated with ADC Gem-HC-239iC-BL
Protocol: Concentrations of β-lapachone in formalin-fixed tumour and the respective formol supernatant were quantified using reversed-phase ultra-high-performance liquid chromatography tandem mass spectrometry as previously described. Care was taken during sample handling to minimize exposure to light, and amber glass/plastic and foil wrapping were used where possible. Tumour tissue was homogenized to a concentration of 200 mg ml^−1 with PBS. An aliquot of homogenate or formol supernatant sample was transferred to a fresh tube with cryptotanshinone (internal standard) in ethyl acetate for liquid–liquid extraction. Samples were mixed, centrifuged and the ethyl acetate layer transferred to a 96-well plate, evaporated and reconstituted in 0.1% formic acid in acetonitrile:water 70:30. PBS was used as the surrogate matrix for calibration standards and quality-control samples. The calibration ranges were 0.25–250 ng g^−1 (homogenate) and 0.05–50 ng ml^−1 (formol). The analytical batches included quality-control samples at low, medium and high concentrations. The analysis was performed on a Shimadzu Nexera X2 UHPLC coupled to a Sciex TripleTOF 6600 mass spectrometer. The extracted samples were injected onto a Phenomenex Kinetex EVO C18, 1.7 µm, 50 × 2.1 mm analytical column, at 35 °C. […]

[3] = test system: CD33+ HL-60 cells; assay: Viability assay with small-molecule prodrugs and ADCs, HL-60; format: cell-based, human; conditions: Homo sapiens, read-out: IC50 against CD33+ HL-60 cells
Protocol: (§1) For assays assessing cytotoxicity of β-lapachone versus small-molecule prodrugs, antibodies and ADCs, suspension cells were plated into 24-well plates at a density of 2.5 × 10^5 cells ml^−1 in 240 µl. Stocks of ADC or antibody in PBS were normalized to 12.5 µM. Serial dilutions of compound were made up in PBS. Then, 60 µl of each stock of either PBS or compound in PBS was added to the cells to achieve the desired final concentration. After the specified incubation time, toxicity was assessed by counting of live cells using the trypan blue exclusion method with a Countess II Automated Cell Counter (ThermoFisher Scientific) according to the manufacturer’s instructions. Cell viability was determined by dividing the average live cell number of treated wells by the average live cell number for control wells treated with PBS only. IC50 values were calculated using GraphPad Prism software. Note: for the assay performed over 96 h, 5% human serum was added to media instead of 10% fetal bovine serum, to limit non-specific antibody internalisation. This had little effect on ADC toxicity.

[4] = test system: AML cell line MOLM-13; assay: Viability assay with small-molecule prodrugs, MOLM-13; format: cell-based; conditions: 5 µM, 24 h
Protocol: as §1

[5] = test system: range of cancer cell lines, including leukaemia, breast, colon and cervical cancer; assay: Viability assay (CellTiter-Blue) with small-molecule lapachone models; format: cell-based; conditions: 48 h
Protocol: Assays assessing cytotoxicity of β-lapachone and derivatives were performed by CellTiter-Blue assay (Promega) according to the manufacturer’s instructions. Briefly, adherent cancer-cell lines were plated at 20,000 cells per well in 96-well plates or suspension cell lines were plated at a concentration of 2 × 10^5 cells ml^−1 in 24-well plates. Compound stocks in media were made by dilution of DMSO stocks containing the compound of interest to obtain a final in-plate DMSO concentration of only 0.1%. Incubation was performed for 48 h. Following incubation, media was replaced with media containing CellTiter-Blue (Promega) in 1:10 dilution and the plates were incubated for 1.5–4 h. The fluorescence of the plates was recorded (excitation, 555 nm; emission, 585 nm; MiniMax i3x Reader, Molecular Devices). Cell viability was calculated by division of the fluorescence intensity of treated wells by that of the calculated average fluorescence intensity of replicate negative control wells containing cells with 0.1% DMSO only. IC50 values were calculated using GraphPad Prism 8 software.

[6] = test system: HL-60 cells; assay: Cellular ROS detection with 2',7'-dichlorodihydrofluorescein diacetate; format: cell-based, human; conditions: 50 µM, 15 min
Protocol: To determine ROS generation by compounds in leukaemia cells, HL-60 cells were washed with PBS, then incubated in serum-free media (10 ml of 1.6 × 10^6 ml^−1 cell concentration) with 2,7-dichlorofluorescin diacetate at 20 µM for 30 min at 37 °C. Following this, the cells were washed with PBS and resuspended in Fluorbrite–DMEM media (ThermoFisher) (10 ml). Then, 450 µl of the cell mixture was seeded into wells of a clear flat-bottomed 12-well plate, to which 50 µl of a 10× stock of the compounds in media had been already added, to achieve a final compound concentration of 50 µM. The 10× media stocks were made by 100-fold dilution of DMSO compound stocks, to ensure a final in-plate DMSO concentration of 0.1%. DMSO 0.1% only was used as a negative control. […] After plating the cells were immediately incubated at 37 °C in the dark for 15 min before the fluorescence of the wells (excitation, 485 nm; emission, 535 nm) was recorded (MiniMax i3x Imager, Molecular Devices).

For CC1(C)CCC2=C(O1)c1ccccc1C(=O)C2=O [Compound 1, β-lapachone, reference compound], the “toxicity with NH4Cl at 30 mM” value [1] was “increase in toxicity”, the “concentration of 1 in tumour tissue” value [2] was 0.327 ng/g and the IC50 [3] was roughly 1 µM. The “toxicity to MOLM-13 at 5 µM” value [4] was “complete cell death”.

With CC1(C)CCC2=C(O1)c1ccccc1C(O)(Cc1ccccc1)C2=O (stereo not drawn) [Compound 24, benzyl β-lapa-ketol] the “decrease in toxicity relative to 1” value [5] was greater than 20 fold and the “ROS generation in HL-60” value [6] was “did not generate detectable ROS”.
